In this experiment the test system is Trichuris muris adults ex vivo, motility imaging, 24 h. The experiment is described as follows: whipworm adult movement reduction ex vivo – whole organism, INVAPP motility imaging, 24 h, dose response (AID 1259353).

As a reminder, the EC50 is the concentration at which the effect is half-maximal.

Consider `COc1ccccc1CNc1nc(NCCOc2ccccc2Cl)c2sccc2n1`, for which the EC50 is 70 µM.

`COCCNc1nc(NCCOc2ccccc2Cl)c2sccc2n1`: the EC50 was 26 µM.

On to `CNc1nc(NCCOc2ccccc2Cl)c2sccc2n1`, for which the EC50 was 44 µM.

As for `CNc1nc(NCCOc2ccccc2)c2sccc2n1`, the EC50 is 28 µM.

These data come from PubChem BioAssay AID1259353.
